Source: patent US20070191287A1, “D-ribose for improving depression-like symptoms” (priority 2004, published 2007)

Assays:
mice = test: forced swimming test in mice; assay type: in vivo, mice (ddY-strain)
Description: Male 10 ddY-strain mice (5 weeks old, purchased from Japan SLC, Inc.) were used for each group as test animals. The animals were housed in groups of 20 mice in a plastic-made cage (26×43×16 cm; Clea Japan Inc.), and they were kept in the animal room maintained at 23±2° C. with 30 to 80% humidity, and illuminated for 12 hr (6:30 to 18:30). The animals were allowed free access to pellet diets (CRF-1, Oriental Yeast, Co., Ltd.), and tap water.
The experiment was carried out on the four groups, such as the groups treated with D-ribose at doses of 30 mg/kg, 100 mg/kg, 300 mg/kg, and the control group. The animals were grouped based on the body weights which had been previously measured prior to the experiment so that the average body weight of each group becomes equal. D-ribose was dissolved in distilled water and administered orally at 10 ml/kg once a day and repeatedly for one week in mice. To the control group, distilled water was administered orally instead of aqueous D-ribose solution. […] Briefly, the animals were forced to swim twice, i.e., for 15 minutes prior to the treatment of a test compound or distilled water on the day before the final administration, and further for 5 minutes one hour after the final administration on the following day. That is, the mice were forced to swim in a clear polycarbonate-made measuring cylinder (internal diameter: 10 cm, height: 25 cm) containing water up to a height of 10 cm at a temperature of 250° C., and the duration of the immobility during the second swimming was recorded.
The results were expressed as mean±standard error for each group. The significant differences between the groups were studied by Dunnett's multiple comparison test with a significance level of 5%.
Male10 ddY-strain male mice (5 weeks old, purchased from Japan SLC, Inc.) were used for each group as test animals. The animals were kept under the same conditions as in Example 1. The experiment was carried out on the four groups, such as the groups treated with D-ribose 100 mg/kg, potassium magnesium aspartate (Mg.K aspartate) 50 mg/kg, and D-ribose 100 mg/kg+Mg.K aspartate 50 mg/kg, and the control group. The animals were grouped based on the body weights which had been previously measured prior to the experiment so that the average body weight of each group becomes equal. D-ribose and potassium magnesium aspartate were dissolved in distilled water and administered orally at 10 ml/kg once a day and repeatedly for one week. […]
Male 10 ddY-strain mice (5 weeks old, purchased from Japan SLC, Inc.) were used for each group as test animals. The animals were grouped based on the body weights which had been previously measured prior to the experiment so that the average body weight of each group becomes equal. […]

[1] = test system: reserpine-induced hypothermia; test: reserpine-induced hypothermia competitive test; assay type: in vivo, mice (ddY-strain)
Description: Male 8 ddY-strain mice (5 weeks old, purchased from Japan SLC, Inc.) were used for each group as test animals. The animals were kept under the same conditions as in Example 1. The experiment was carried out on the four groups such as the groups treated with D-ribose at doses of 30 mg/kg, 100 mg/kg, 300 mg/kg, and the control group. The animals were grouped based on the body temperature (rectal temperature) which had been previously measured prior to the experiment so that the average body temperature of each group becomes equal. D-ribose was dissolved in distilled water and administered orally at 10 ml/kg once a day and repeatedly for one week. To the control group, distilled water was administered orally instead of aqueous D-ribose solution. The reserpine-induced hypothermia competitive test was a modification of the method of Wachtel (cf., Neuropharmacology, 22 (3), p. 267-272 (1983)). Namely, a solution of reserpine (Daiichi Pharmaceutical Co. Ltd.) in an aqueous propylene glycol solution was subcutaneously administered to the mice in each group at a dose of 1 mg/kg (i.e., in an amount of 10 ml/kg) just before administration of a test compound or distilled water, and subsequently, D-ribose or distilled water were administered orally to the mice, and then the rectal temperature of each mouse was measured on 1, 2, 4, 6 and 8 hours after administration of D-ribose or distilled water. In the experiment, the reserpine treatment and the administration of the test compound were carried out during from 10:00 AM to 11:00 AM. The results were expressed as mean±standard error in each group. The significant differences between the groups were studied by Bonferroni/Dun multiple comparison test with a significance level of 5%. Male 8 ddY-strain mice (5 weeks old, purchased from Japan SLC, Inc.) were used for each group as test animals. The animals were kept under the same conditions as in Example 1. […] To the control group, distilled water was administered orally. The grouping, the administration of reserpine and the measurement of body temperature were carried out in the same manner as in Example 3. The results were expressed as mean±standard error for each group. The significant differences between the groups were studied by Bonferroni/Dunn multiple comparison test with a significance level of 5%.

rats = test: soaking fatigue test in rats; assay type: in vivo, rats (SD-strain); conditions: orally twice a day divided, 5 days
Description: Male 10 SD-strain rats (7 weeks old, purchased from Japan SLC, Inc.) were used for each group as test animals. The animals were grouped based on the body weights which had been previously measured prior to the experiment so that the average body weight of each group becomes equal. The animals were kept under the same conditions as in Example 1. The experiment was carried out on the 3 groups, such as the groups treated with D-ribose at doses of 300 mg/kg, 1000 mg/kg, and the control group. To the D-ribose-treated groups, D-ribose was dissolved in distilled water for injection in a predetermined amount for each body weight, and the resulting aqueous solution was mandatorily administered orally to the rats at a dose of 10 ml/kg. To the control group, distilled water for injection was mandatorily administered orally instead of aqueous D-ribose solution at a dose of 10 ml/kg.
The soaking fatigue test in rats was carried out by a modification of the method of Tanaka (cf., Igaku-no-Ayumi, 204 (5), 362-364 (2003)). Briefly, the rats in each group were kept in a cage where water at 23±1° C. was filled at a water depth of about 1.5 cm for 5 days, during which D-ribose was orally administered to the rats twice a day at 10 A.M. and 3 P.M. with divided amount of the daily dose (300 mg/kg or 1000 mg/kg), i.e., at each time 150 mg/kg or 500 mg/kg, respectively, for 5 days in a row. Twenty-four hours after the last administration, the rats were loaded with a weight (about 20 g, about 8°% of the body weight) at a position of about ⅘ distant from the root. Each rat was forced to swim individually in a clear acrylic cylindrical water bath (inner diameter: 25 cm, height: 60 cm) containing warm water (25±2° C., water-depth: 50 cm). The time from the beginning of swimming until the nose of the rat sank down into the water for more than 10 seconds was measured.
The results were expressed as mean±standard error for each group. The significant differences between the groups were studied by Bonferroni/Dun multiple comparison test with a significance level of 5%.

human = test: evaluation of effect of maintaining concentration in human (random number table test); assay type: in vivo; conditions: healthy volunteers; D-ribose 2.2 g/day for 7 days, crossover vs dextrin control
From the text: The effect of maintaining concentration by D-ribose in human can be evaluated by the test using a random number table (cf., Sports Mental Training for Winning Games, written by Yoshihide TAKAHATA, published by NATSUME CO, LTD., 2003).
Twenty healthy volunteers are grouped into two groups, i.e., the D-ribose 2.2 g/day-treated group, and the control group. The volunteers in the D-ribose 2.2 g/day-treated group take an aqueous solution of D-ribose (2.2 g), a roasted green tea extra (0.24 g) and sucralose (2 mg) in distilled water for injection per day. The volunteers in the control group take an aqueous solution of dextrin (2.2 g), a roasted green tea extra (0.24 g) and sucralose (2 mg) in distilled water per day. […]
The evaluation test for concentration power is carried out as follows. […] Then, the number of marked cells is compared between both groups and the concentration power is evaluated therefrom.
Further, after one-month washout period from the above evaluation test for concentration power, the volunteers in both groups are exchanged each other, and then the same test is carried out again on the volunteers. Combining the results of these two tests, the effect of maintaining concentration by D-ribose is comprehensively evaluated.

Compound | duration of immobility (mice; Example 2, Mg.K aspartate 50 mg/kg alone, orally once a day for one week) | duration of immobility (mice; Comparative Example 1, D-ribose 100 mg/kg and 300 mg/kg orally for one week) | duration of immobility (mice; Example 1, 300 mg/kg orally once a day for one week, vs control group) | duration of immobility (mice; Example 2, D-ribose 100 mg/kg alone, orally once a day for one week) | reserpine-induced hypothermia (rectal temperature) ([1]; Example 3, 30 mg/kg orally once a day for one week, reserpine 1 mg/kg s.c.) | reserpine-induced hypothermia (rectal temperature) ([1]; Example 3, 100 mg/kg orally once a day for one week, 4 or 6 hours after administration) | reserpine-induced hypothermia (rectal temperature) ([1]; Example 3, 300 mg/kg orally once a day for one week, 4 or 6 hours after administration) | reserpine-induced hypothermia (rectal temperature) ([1]; Example 4, D-ribose alone 100 mg/kg orally, at 4 and 6 hours after treatment) | anti-fatigue effect (duration of swimming) (rats; 300 mg/kg daily dose, swim 24 h after last administration) | anti-fatigue effect (duration of swimming) (rats; 1000 mg/kg daily dose, stress-related fatigue caused by breeding under soaking) | duration of swimming longer than that in the control group (rats; 1000 mg/kg daily dose, swim 24 h after last administration) | concentration power (number of marked cells) (human)
N[C@@H](CC(=O)O)C(=O)O.[K+].[Mg+2] [Mg.K aspartate, potassium magnesium aspartate] | not significantly reduced |  |  |  |  |  |  |  |  |  |  | 
O=C[C@H](O)[C@H](O)[C@H](O)CO [D-ribose] |  | dose-depending reduction | significantly reduced | not significantly reduced | not significantly alleviated | significantly and nearly dose-relatively alleviated | significantly and nearly dose-relatively alleviated | significantly alleviated | any significant anti-fatigue effect was observed | significant anti-fatigue effect | about 70% | dominantly maintained
